For data set [1] the following is noted: amide bond, 13-membered ring, CDMT/NMM, DMF.
Data set [2] concerns the target T1, CFTR (F508del/MF-HBE cells) (Homo sapiens, UniProt P13569, DEL508-508).
T1 construct: human bronchial epithelial (HBE) cells derived from CF subjects heterozygous for F508del and a minimal function CFTR mutation (F508del/MF-HBE); endogenous in cells; host or cells: Primary human bronchial epithelial cells from CF subjects (F508del/MF genotype), differentiated at an air-liquid interface
The data set can be described thus: Ussing chamber assay of CFTR-mediated short-circuit currents, Assay A (0.1 μM to 25 μM, 6 concentrations). In kind it is cell-based. The note with it: with 33 nM potentiator and 18 μM Tezacaftor, 20% human serum; for Emax: 18-24 hours, read-out: A Max activity (%). In short, it runs like this: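 F508del/MF-HBE cells grown at air-liquid interface were incubated 18-24 h at 37 °C in 20% human serum with correctors plus 18 μM tezacaftor and a fixed partner compound (33 nM for concentration series, 44 nM at 1 μM). ISC was read at 0 mV after 20 μM forskolin, minus the post-inhibitor current.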

Data set [3] has as its target T1, CFTR (F508del/MF-HBE cells). The data set can be described thus: Ussing chamber assay of CFTR-mediated short-circuit currents, Assay B (0.00001 μM to 25 μM, 12 concentrations). In kind it is cell-based. The note with it: with 33 nM potentiator and 18 μM Tezacaftor, 20% human serum; for Emax: 18-24 hours, read-out: B Max activity (%). Here is the method: Ussing chamber experiments were performed using human bronchial epithelial (HBE) cells derived from CF subjects heterozygous for F508del and a minimal function CFTR mutation (F508del/MF-HBE) and cultured as previously described (Neuberger T, Burton B, Clark H, Van Goor F Methods Mol Biol 2011:741:39-54). After four days the apical media was removed, and the cells were grown at an air liquid interface for >14 days prior to use.
To isolate the CFTR-mediated short-circuit (ISC) current, F508del/MF-HBE grown on Costar® Snapwell™ cell culture inserts were mounted in an Ussing chamber and the transepithelial ISC was measured under voltage-clamp recording conditions (Vhold=0 mV) at 37° C. The basolateral solution contained (in mM) 145 NaCl, 0.83 K2HPO4, 3.3 KH2PO4, 1.2 MgCl2, 1.2 CaCl2, 10 Glucose, 10 HEPES (pH adjusted to 7.4 with NaOH) and the apical solution contained (in mM) 145 NaGluconate, 1.2 MgCl2, 1.2 CaCl2, 10 glucose, 10 HEPES (pH adjusted to 7.4 with NaOH) and 30 μM amiloride to block the epithelial sodium channel. Forskolin (20 μM) was added to the apical surface to activate CFTR, followed by apical addition of a CFTR inhibitor cocktail consisting of BPO, GlyH-101, and CFTR inhibitor 172 (each at 20 μM final assay concentration) to specifically isolate CFTR currents. The CFTR-mediated ISC (μA/cm^2) for each condition was determined from the peak forskolin response to the steady-state current following inhibition.
The activity of the CFTR corrector compounds on the CFTR-mediated ISC was determined in Ussing chamber studies as described above. The F508del/MF-HBE cell cultures were either incubated with the corrector compounds at a range of concentrations in combination with 33 nM (6R,12R)-17-amino-12-methyl-6,15-bis(trifluoromethyl)-13,19-dioxa-3,4,18-triazatricyclo[12.3.1.12,5]nonadeca-1(18),2,4,14,16-pentaen-6-ol and 18 μM Tezacaftor or were incubated with the corrector compounds at a single fixed concentration of 1 μM in combination with 44 nM (6R,12R)-17-amino-12-methyl-6,15-bis(trifluoromethyl)-13,19-dioxa-3,4,18-triazatricyclo[12.3.1.12,5]nonadeca-1(18),2,4,14,16-pentaen-6-ol and 18 μM Tezacaftor for 18-24 hours at 37° C. and in the presence of 20% human serum. The concentration of corrector compounds with 44 nM or 33 nM (6R,12R)-17-amino-12-methyl-6,15-bis(trifluoromethyl)-13,19-dioxa-3,4,18-triazatricyclo[12.3.1.12,5]nonadeca-1(18),2,4,14,16-pentaen-6-ol and 18 μM Tezacaftor during the 18-24 hours incubations was kept constant throughout the Ussing chamber measurement of the CFTR-mediated ISC to ensure compounds were present throughout the entire experiment. The efficacy and potency of the putative F508del correctors was compared to that of the known Vertex corrector, (14S)-8-[3-(2-{Dispiro[2.0.2.1]heptan-7-yl}ethoxy)-1H-pyrazol-1-yl]-12,12-dimethyl-2λ^6-thia-3,9,11,18,23-pentaazatetracyclo[17.3.1.111,14.05,10]tetracosa-1(22),5,7,9,19(23),20-hexaene-2,2,4-trione, in combination with 18 μM Tezacaftor and 1 μM Ivacaftor.
• Assay A: 0.1 μM to 25 μM, 6 concentrations • Assay B: 0.00001 μM to 25 μM, 12 concentrations • Assay C: 0.026 μM to 25 μM, 6 concentrations • Assay D: Activity at single concentration of 1 μM

Like-named read-outs stand apart in the source and are kept apart here. Some results are limits rather than exact numbers.

T1 sequence (P13569 with tags, fused parts or gaps DEL508-508): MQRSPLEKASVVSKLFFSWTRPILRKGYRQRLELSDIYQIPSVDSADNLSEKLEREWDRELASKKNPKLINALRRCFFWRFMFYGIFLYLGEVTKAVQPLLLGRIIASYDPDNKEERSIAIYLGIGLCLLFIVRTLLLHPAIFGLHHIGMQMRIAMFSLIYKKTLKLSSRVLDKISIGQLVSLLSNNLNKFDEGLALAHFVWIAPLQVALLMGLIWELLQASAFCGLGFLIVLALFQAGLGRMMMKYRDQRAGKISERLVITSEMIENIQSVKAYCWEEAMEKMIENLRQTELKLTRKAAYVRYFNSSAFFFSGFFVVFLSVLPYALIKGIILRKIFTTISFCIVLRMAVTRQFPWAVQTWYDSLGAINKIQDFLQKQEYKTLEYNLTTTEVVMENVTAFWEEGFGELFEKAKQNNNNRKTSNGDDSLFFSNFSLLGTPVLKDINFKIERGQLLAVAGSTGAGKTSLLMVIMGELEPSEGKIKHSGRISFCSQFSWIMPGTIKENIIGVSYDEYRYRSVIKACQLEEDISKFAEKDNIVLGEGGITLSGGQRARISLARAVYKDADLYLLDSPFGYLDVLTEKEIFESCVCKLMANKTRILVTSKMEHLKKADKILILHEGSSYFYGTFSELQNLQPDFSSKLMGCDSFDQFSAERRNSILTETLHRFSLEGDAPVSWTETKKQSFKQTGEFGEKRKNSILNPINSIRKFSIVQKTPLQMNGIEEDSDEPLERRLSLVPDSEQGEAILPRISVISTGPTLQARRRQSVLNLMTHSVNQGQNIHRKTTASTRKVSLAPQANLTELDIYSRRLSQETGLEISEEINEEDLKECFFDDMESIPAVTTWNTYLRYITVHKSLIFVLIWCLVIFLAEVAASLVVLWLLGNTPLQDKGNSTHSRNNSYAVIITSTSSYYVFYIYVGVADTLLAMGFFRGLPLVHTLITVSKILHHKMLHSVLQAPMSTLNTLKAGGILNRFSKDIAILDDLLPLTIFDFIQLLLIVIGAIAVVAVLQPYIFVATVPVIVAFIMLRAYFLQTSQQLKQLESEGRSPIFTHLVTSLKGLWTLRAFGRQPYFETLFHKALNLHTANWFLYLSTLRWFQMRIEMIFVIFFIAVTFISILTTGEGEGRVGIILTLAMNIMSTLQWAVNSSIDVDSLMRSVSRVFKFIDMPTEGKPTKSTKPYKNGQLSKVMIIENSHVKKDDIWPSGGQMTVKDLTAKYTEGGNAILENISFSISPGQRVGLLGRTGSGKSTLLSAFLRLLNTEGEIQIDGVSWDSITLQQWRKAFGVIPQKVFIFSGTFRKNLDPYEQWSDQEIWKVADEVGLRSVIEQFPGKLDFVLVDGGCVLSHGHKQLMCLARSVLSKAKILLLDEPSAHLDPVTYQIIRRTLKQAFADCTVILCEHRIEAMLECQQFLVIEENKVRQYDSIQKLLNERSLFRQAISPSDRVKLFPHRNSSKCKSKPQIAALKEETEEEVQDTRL

“(5P,11R)-12-({6-tert-butyl-5-methyl-5H-pyrrolo[2,3-b]pyrazin-3-yl}methyl)-11-(2,2-dimethylpropyl)-7-methyl-6-[2-methyl-6-(2-methylpropyl)phenyl]-9-oxa-2λ^6-thia-3,5,12,19-tetraazatricyclo[12.3.1.1∧{4,8}]nonadeca-1(17),4(19),5,7,14(18),15-hexaene-2,2,13-trione”: the ring closure, yield after HPLC in data set [1] (14.0 mM) amounted to 61%.
In data set [1] (from Cc1cccc(C)c1-c1cc(OCC(CCC2(C)CC2)NCc2cnc3oc(C4CC4)cc3n2)nc(NS(=O)(=O)c2cccc(C(=O)O)c2)n1, 12.8 mM, 24.5 h), `Cc1cccc(C)c1-c1cc2nc(n1)NS(=O)(=O)c1cccc(c1)C(=O)N(Cc1cnc3oc(C4CC4)cc3n1)C(CCC1(C)CC1)CO2` (single isomer, unassigned; isomer 1) registered a ring closure, yield after HPLC of 48%.
Broadly, the EC50 is the midpoint of the concentration-response curve. Turning to `Cc1cccc(C)c1-c1cc2nc(n1)NS(=O)(=O)c1cccc(c1)C(=O)N(Cc1cnc3oc(C4CC4)cc3n1)[C@H](CC1CCC1)CO2` [Compound I-104, (11R)-11-(cyclobutylmethyl)-12-[(6-cyclopropylfuro[2,3-b]pyrazin-2-yl)methyl]-6-(2,6-dimethylphenyl)-2,2-dioxo-9-oxa-2λ^6-thia-3,5,12,19-tetrazatricyclo[12.3.1.14,8]nonadeca-1(18),4(19),5,7,14,16-hexaen-13-one], in data set [2], the Emax is above 60% and the EC50 is below 1 µM. Also, in data set [3], the Emax is above 60% and the EC50 is 3 to 30 µM.
In data set [1] (from Cc1cccc(C)c1-c1cc(OCC(CCC(C)(C)F)NCc2cnc3oc(C(C)C)cc3n2)nc(NS(=O)(=O)c2cccc(C(=O)O)c2)n1, 35.1 mM, 16.0 h), `Cc1cccc(C)c1-c1cc2nc(n1)NS(=O)(=O)c1cccc(c1)C(=O)N(Cc1cnc3oc(C(C)C)cc3n1)C(CCC(C)(C)F)CO2` (centres unmarked) showed a ring closure, yield after HPLC of 65%.
For `Cc1cccc(C)c1-c1cc2nc(n1)NS(=O)(=O)c1cccc(c1)C(=O)N(Cc1cnc3oc(C(C)C)cc3n1)[C@H](CC1CC1)CO2` [Compound I-57], the Emax in data set [2] and in data set [3] was above 60% in each case. Moreover, the EC50 in data set [2] is below 1 µM; in data set [3], 3 to 30 µM.
As for “(5P,11R)-11-({bicyclo[1.1.1]pentan-1-yl}methyl)-12-({6-tert-butyl-5-methyl-5H-pyrrolo[2,3-b]pyrazin-3-yl}methyl)-7-methyl-6-[2-methyl-6-(2-methylpropyl)phenyl]-9-oxa-2λ^6-thia-3,5,12,19-tetraazatricyclo[12.3.1.1∧{4,8}]nonadeca-1(17),4(19),5,7,14(18),15-hexaene-2,2,13-trione”, the ring closure, yield after HPLC in data set [1] (22.6 mM, 25.0 °C) was determined as 76%.
In the case of `Cc1cccc(C)c1-c1cc2nc(n1)NS(=O)(=O)c1cccc(c1)C(=O)N(Cc1cnc3oc(C(C)C)cc3n1)[C@@H](CCC1(C)CC1)CO2` (stereo in doubt) [Compound I-70], the Emax in data set [2] and in data set [3] was above 60% each time. The results for the EC50 in data set [2] and in data set [3] were below 1 µM and 3 to 30 µM, respectively.
Turning to `Cc1cccc(C)c1-c1cc2nc(n1)NS(=O)(=O)c1cccc(c1)C(=O)N(Cc1cnc3cc(C(C)(C)C)n(C)c3n1)[C@H](C1CCCO1)CO2` (single isomer, unassigned; isomer b), in data set [1] (from Cc1cccc(C)c1-c1cc(OC[C@H](NCc2cnc3cc(C(C)(C)C)n(C)c3n2)C2CCCO2)nc(NS(=O)(=O)c2cccc(C(=O)O)c2)n1, 15.5 mM, 25.0 °C, 20.0 h), the ring closure, yield after HPLC was found to be 55%.
On to `Cc1cccc(C)c1-c1cc2nc(n1)NS(=O)(=O)c1cccc(c1)C(=O)N(Cc1cnc3oc(C4CC4)cc3n1)[C@H](CCC(C)(C)C)CO2` [Compound I-24], for which, in data set [2], the Emax was above 60% and the EC50 was below 1 µM. Moreover, in data set [3], the Emax is above 60% and the EC50 is 1 to 3 µM.
Turning to `Cc1cccc(C)c1-c1cc2nc(n1)NS(=O)(=O)c1cccc(c1)C(=O)N(Cc1cnc3oc(C4(C)CC4)cc3n1)[C@H](CC13CC(C1)C3)CO2` [Compound I-97], in data set [2], the Emax was above 60% and the EC50 is below 1 µM. Further, in data set [3], the Emax is above 60% and the EC50 was in the range of 1 to 3 µM.
Consider `Cc1cccc(CC(C)C)c1-c1nc2nc(c1C)OC[C@@H](CC(C)(C)C)N(Cc1cnc3cc(C(C)C)n(C)c3n1)C(=O)c1cccc(c1)S(=O)(=O)N2` (atropisomer, axis not shown) [Compound I-82], for which the Emax in data set [2] and in data set [3] was above 60% in each case. Besides, the EC50 in data set [2] and in data set [3] was below 1 µM each time.

The record behind these values is US20250340574A1, “MODULATORS OF CYSTIC FIBROSIS TRANSMEMBRANE CONDUCTANCE REGULATOR” (Vertex Pharmaceuticals Incorporated, priority 2022, published 2025).
